Experiment [1] concerns Anopheles funestus (metabolic-resistant strain FUMOZ-R). Kind of experiment: Glazed tile contact test, knock-down. In kind it is in vivo. The protocol:
(§1) To produce a suitable preparation Transfluthrin was dissolved in acetone. The active compound solution was pipetted onto a glazed tile and, after drying, adult mosquitoes of the species: • Anopheles gambiae (target-site-resistant and metabolic-resistant strain: RSPH), • Anopheles gambiae (target-site-resitant and metabolic-resistant strain: Tiassalé), • Anopheles gambiae (tar et-site-resitant and metabolic-resistant strain: Akron), • Anopheles gambiae (target-site-resistant strain: VK7), and • Anopheles funestus (metabolic-resistant strain FUMOZ-R) were placed onto the treated tile (each strain was tested on separate tiles). The exposition time was 30 minutes.
(§2) 0.25 hours, 0.5 hours, 1 hour, 2 hour, 3 hour, 4 hour and 24 hours after contact to the treated surface, the knock-down proportion of the test animals in % was determined. Here, 100% (effect) means that all mosquitoes have been killed; 0% (effect) means that none of the mosquitoes have been killed.
(§3) Similarly as outlined in example 2 for Transfluthrin, Metofluthrin efficacy was assessed against • Anopheles gambiae (target-site-resistant and metabolic-resistant strain: RSPH), • Anopheles funestus (metabolic-resistant strain FUMOZ-R), and • Culex quinquefasciatus (metabolic-resistant to DDT; strain P00), with the results shown in Tables 10 to 12. 0.25 hours, 0.5 hours, 1 hour, 2 hour, 3 hour, 4 hour and 24 hours after contact to the treated surface, the knock-down proportion of the test animals in % is depicted in Tables 10 to 12. 100% (effect) means that all mosquitoes have been killed; 0% (effect) means that none of the mosquitoes have been killed.
(§4) Similarly as outlined in example 2 for Transfluthrin, Metofluthrin efficacy was assessed against • Anopheles gambiae (target-site-resistant and metabolic-resistant strain: RSPH), • Anopheles funestus (metabolic-resistant strain FUMOZ-R), and with the results shown in Tables […]. 0.25 hours, 0.5 hours, 1 hour, 2 hour and 3 hours after contact to the treated surface, the knock-down proportion of the test animals in % is depicted in Tables 13 to 14. 100% (effect) means that all mosquitoes have been killed; 0% (effect) means that none of the mosquitoes have been killed.

The subject of experiment [2] is Anopheles gambiae (target-site-resistant and metabolic-resistant strain: RSPH). In words: Glazed tile contact test, knock-down. Type of experiment: in vivo. The procedure: as §1, §2, §3, §4

Take `COCc1c(F)c(F)c(COC(=O)C2C(C=C(C)C#N)C2(C)C)c(F)c1F` (centres unmarked) [Momfluorothrin, 2,3,5,6-Tetrafluoro-4-(methoxymethyl)benzyl 3-(2-cyano-1-propen-1-yl)-2,2-dimethylcyclopropanecarboxylate]: the Effect % is 0% in experiment [1] (1.6 g/ha, 0.25 h after contact); 0% in experiment [1] (1.6 g/ha, 0.5 h after contact); 0% in experiment [1] (1.6 g/ha, 1 h after contact); 10% in experiment [1] (1.6 g/ha, 2 h after contact); 20% in experiment [1] (1.6 g/ha, 3 h after contact); 100% in experiment [1] (40 g/ha, 0.25 h after contact). For the same compound, the Effect % in experiment [1] (40 g/ha, 0.5 h after contact) stood at 100%; in experiment [1] (40 g/ha, 1 h after contact), 100%; in experiment [1] (40 g/ha, 2 h after contact), 90%; in experiment [1] (40 g/ha, 3 h after contact) it was 100%; in experiment [2] (1.6 g/ha, 0.25 h after contact) it was 10%; in experiment [2] (1.6 g/ha, 0.5 h after contact), 7%. Besides, the Effect % in experiment [2] (1.6 g/ha, 1 h after contact) was found to be 35%; in experiment [2] (1.6 g/ha, 2 h after contact), 14%; in experiment [2] (1.6 g/ha, 3 h after contact), 14%; in experiment [2] (40 g/ha, 0.25 h after contact) it was 100%; in experiment [2] (40 g/ha, 0.5 h after contact) it was 100%; in experiment [2] (40 g/ha, 1 h after contact), 100%. Besides, the Effect % in experiment [2] (40 g/ha, 2 h after contact) is on record as 100%; in experiment [2] (40 g/ha, 3 h after contact), 100%.

These data come from US20150289513A1, “USE OF A COMPOUND COMPRISING A POLYFLUOROBENZYL MOIETY AGAINST INSECTICIDE-RESISTANT PESTS” (priority 2012, published 2015).
